The record followed here is ChEMBL document CHEMBL1125779, “Synthesis and evaluation of some nitrobenzenesulfonamides containing nitroisopropyl and (ureidooxy)methyl groups as novel hypoxic cell selective cytotoxic agents” (J Med Chem, 1991).

Molecules are shown by their SMILES.

This data set can be described thus: Partition coefficient was measured in n-octanol at the PH 7.4 buffer. In kind it is physicochemical. Particulars: octanol/water.
With `CNCCN(C)S(=O)(=O)c1ccc(CONC(N)=O)c([N+](=O)[O-])c1`, the Partition coefficient is reported as 0.28.

With `O=[N+]([O-])c1nccn1CC(O)CN1CCCCC1` (stereo not drawn) [PIMONIDAZOLE], the Partition coefficient is recorded as 0.4.

Take `CN(CCN)S(=O)(=O)c1ccc(C(C)(C)[N+](=O)[O-])c([N+](=O)[O-])c1`: the Partition coefficient was determined as 0.37.
